Test results: PubChem BioAssay (NCI)
Several values for one entry are separate records, joined by “and”; a condition that tells them apart may be missing. Identical values can stand only once.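 Interpolation was linear, between the two tested concentrations surrounding the appropriate level; five concentrations were tested over 48 hours in 96-well plates. At the GI50, growth is halved. TGI: concentration producing complete growth inhibition.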 Where a SMILES comes first, the peptide text is derived from it. The star is where a group is joined. Boc = CC(C)(C)OC(=O)*

Key:
Assay in all cases: inhibition of tumour cell growth, NCI panel, 48 h
[1] = test system: SF-268 CNS
[2] = test system: SN12C renal
[3] = test system: MDA-MB-231 breast
[4] = test system: NCI-H522 lung
[5] = test system: K-562 leukemia
[6] = test system: LOX IMVI melanoma
[7] = test system: OVCAR-3 ovarian
[8] = test system: SNB-75 CNS
[9] = test system: SK-MEL-28 melanoma
[10] = test system: HCT-116 colon
[11] = test system: SF-539 CNS

Compound	TGI [1] [µM]	TGI [2] [µM]	TGI [3]	TGI [4] [µM]	TGI [5]	TGI [6] [µM]	TGI [7]	TGI [8] [µM]	TGI [9] [µM]	TGI [10]	TGI [11] [µM]	GI50 [2]	GI50 [7]	GI50 [8]	GI50 [10] [µM]
CN(C)Cc1cc(N=Nc2c(Cl)cccc2Cl)ccc1O	> 100	> 100	> 100 µM	> 100	> 100 µM	> 100	> 100 µM	> 100	> 100	> 100 µM	> 100				
CC(C)(C)c1cc(C(C)(C)C)c(P=C(Cl)Cl)c(C(C)(C)C)c1 (stereo not drawn)	> 100	> 100	> 100 µM	> 100	> 100 µM	> 100	> 100 µM	> 100	> 100	> 100 µM	> 100				
COc1ccccc1/[N+]([O-])=C/c1ccccc1OC(=S)S	> 100	> 100	> 100 µM	71.4	> 100 µM	> 100	> 100 µM	> 100	> 100	> 100 µM	> 100				
CCOC(=O)NC(OCCN(C)C)(C(F)(F)F)C(F)(F)F	> 100	> 100	> 100 µM	> 100	> 100 µM	> 100	> 100 µM	> 100	> 100	> 100 µM	> 100				
CC(=O)N1c2ccccc2C2=NN=C(N(C)C)SC21 (stereo not drawn)	16	6.93	11 µM	6.68	18.8 µM	14.1	9.46 µM	26.4	15.3	10.1 µM	18.3				
CCC(C)C1=C(O)[N+]2([O-])Oc3ccc(-c4c(O)c(O)c(-c5ccc(O)cc5)c(OC(C)=O)c4OC(C)=O)cc3OC2(C(C)CC)C(=O)N1O (stereo not drawn)	> 50	> 50	> 50 µM	> 50	> 50 µM	> 50	> 50 µM	> 50	> 50	> 50 µM	> 50				
C=CCN1C(=O)/C(=C/c2ccccc2)N=C1SC/C=C/C	> 100	> 100	> 100 µM	> 100	> 100 µM	> 100	> 100 µM	> 100	> 100	> 100 µM	> 100				
Nc1ccc2c(c1)N(C(=O)CCCC(=O)N1CC(CCl)c3ccc(N)cc31)CC2CCl (stereo not drawn)	3.31	9.67	8.76 µM	0.286	> 15.8 µM	11.3	> 50 µM	2.87	> 14.4	> 50 µM	11.3				
COC(=O)CC(SCCO)SCCO	> 100	> 100	> 100 µM	> 100	> 100 µM	> 100	> 100 µM	> 100	> 100	> 100 µM	> 100				
COc1ccc(/C=C/C(=N/NC(=O)N/N=C(/C=C/c2ccc(OC)cc2)C(C)C)C(C)C)cc1	> 100	> 100	> 100 µM	> 100	> 100 µM	> 100	> 100 µM	> 100	> 100	> 100 µM	> 100				
N#CCN(Cc1ccccc1)[C@H]1CCC[C@]1(O)/C=C/c1ccc2c(c1)OCO2	> 100		71.5 µM	32.1	51.5 µM	29.4	57.6 µM	> 100	34		88.8				
CC(C)C(=O)CC(Sc1ccc(N)cc1)c1ccccc1 (stereo not drawn)	> 100	64.9	60.5 µM	30.2	> 100 µM	33.8	67.8 µM	> 100	> 100	28.7 µM	63.5				
Nc1c(O)c2c(c(O)c1Cl)C(=O)C=CC2=O	26.3	13.7	19.7 µM	28	> 60.6 µM	16.4	6.02 µM	12.6	8.68	7.09 µM	7.76				
C(=C\c1ccccc1)/Cn1nc(-c2ccccc2)nc1-c1cnccn1	> 100	> 100	> 100 µM	> 100	> 100 µM	> 100	> 100 µM	> 100	> 100	> 100 µM	> 100				
N#Cc1cccc(Nc2ccccc2SSc2ccccc2Nc2cccc(C#N)c2)c1	> 21.5	> 21.5	> 21.5 µM	12.2	> 21.5 µM	8.88	> 21.5 µM	> 21.5	> 21.5	16.5 µM	17.4				
COc1ccc(-c2c(C#N)c(N)n(C3OCC(O)C(O)C3O)c(=S)c2C#N)cc1 (stereo not drawn)	> 100	> 100	> 100 µM	> 100	> 100 µM	> 100	> 100 µM	> 100	> 100		> 100				
COc1ccc(C[C@H]2NC[C@H](OC(C)=O)[C@H]2OC(C)=O)cc1	0.308	0.752	1.49 µM	0.289	51.6 µM	0.331	0.85 µM	0.362	0.562	0.685 µM	10.4				
CCCCC1=C(C(=O)N2CCOCC2)C2(OCCO2)C1Cl (stereo not drawn)	> 100	50.1	> 100 µM	99.3		> 100		> 100	53.6	> 100 µM	37.8				
N/C(=N\Nc1cccc(Cl)c1)c1cccnc1	> 100	> 100	> 100 µM	> 100	> 100 µM	> 100	> 86.3 µM	99.7	> 100	> 100 µM	> 60.8				
COP(=N[Si](C)(C)C)(OC)OC	> 100	> 100	> 100 µM	> 100	> 100 µM	> 100	> 100 µM	> 100	> 100	> 100 µM	> 100				

Compound	TGI [1] [µM]	TGI [2] [µM]	TGI [3]	TGI [4] [µM]	TGI [5]	TGI [6] [µM]	TGI [7]	TGI [8] [µM]	TGI [9] [µM]	TGI [10]	TGI [11] [µM]	GI50 [2]	GI50 [7]	GI50 [8]	GI50 [10] [µM]
CCOC(=O)C(C)c1nc2cc(F)c(N3CCOCC3)cc2[nH]c1=O (stereo not drawn)	> 100	> 100	> 100 µM	> 100	> 100 µM		> 100 µM	> 100	> 100	> 100 µM	> 100				
CC1=NN(c2cccc(Cl)c2)C(=N/c2nc3ccccc3s2)/C1=C\c1ccccc1O	78.8		64.4 µM	49.4	> 100 µM	57.6	60.4 µM	> 100	76.3	68 µM	> 100				
CSC1=C(C)S/C(=C\c2ccc(/C=C3\SC(C)=C(SC)S3)cc2)S1	> 100	> 100	> 100 µM	> 100	> 100 µM	> 100	> 100 µM	> 100	> 100	> 100 µM	92.5				
O=c1cnn(C/C=C/CP(=O)(O)O)c(=O)[nH]1	> 100	> 100	> 100 µM	> 100	> 100 µM	> 100	> 100 µM	> 100	> 100		> 100				
COC(=O)/N=[N+](\[O-])C(c1ccc(Cl)cc1)c1ccc(Cl)cc1	> 100	> 100	77.1 µM	> 100	> 100 µM	43.6	> 100 µM	> 100	> 100	95.3 µM	> 100				
CCCCCCCCCCCCOCCCCCCCCC/C=C/c1ccc2c(c1)OCCOCCOCCOCCO2	48.2	50.8	37.7 µM	28.3	> 100 µM	38.9	40.6 µM	33.4	> 100	29.5 µM	31.4				
CN(C(=O)C12C3C4C1C1C2C3C41C(=O)O)C(C)(C)C (stereo not drawn)	> 100	> 100	> 100 µM	> 100	> 100 µM	> 100	> 100 µM	> 100	> 100	> 100 µM	> 100				
CC[C@@]1(O)C(=O)OCc2c1cc1n(c2=O)Cc2c-1nc1ccccc1c2C=Nc1ccc(N[C@@H]2c3cc4c(cc3[C@@H](c3cc(OC)c(O)c(OC)c3)[C@H]3C(=O)OC[C@@H]32)OCO4)cc1	> 100		18.4 µM and 4.06 µM	> 100	19.3 µM and 10.3 µM		6.01 µM and 0.74 µM		> 100	6.45 µM and 0.653 µM	0.132	0.0291 µM and 0.0101 µM	0.557 µM and 0.185 µM	0.0498 µM and < 0.0169 µM	0.0251
Clc1ccccc1-c1nn2c(CCCCCCCCc3nnc4sc(-c5ccccc5Cl)nn34)nnc2s1	> 100	> 100	> 100 µM	> 100	> 100 µM	> 100	> 100 µM	> 100	> 100	> 100 µM	> 100				
COC(=O)/C=C/COCC1C2CCC(=O)C21 (stereo not drawn)	> 100	> 100	> 100 µM	> 100	> 100 µM	> 100	> 100 µM	> 100	> 100	> 100 µM	> 100				
CN(O)C(=O)c1ccc(OCc2cccc(Cl)c2)cc1	> 100	> 95.1	> 100 µM	> 100	> 100 µM	> 100	> 100 µM	> 100	> 100	> 100 µM	> 51.6				
Cc1cc2c(c(C=Nc3ccc(N(C)C)cc3)c1)OC1(C=C2)Oc2ccccc2C(=O)N1C (stereo not drawn)	45.4	30	24.8 µM	36.9	21.1 µM	29.7	> 50.1 µM	39.5	29.7	21.6 µM	28.2				
O=C(c1c(F)c(F)c(F)c(F)c1F)n1c(=O)[nH]c2ccccc21	34.1	28.3	26.8 µM	13.6	14.9 µM	14.9	24 µM	30.5	28.3	12.2 µM	26.7				
CCOC(=O)C12C3CCC1C2C(=O)C3 (stereo not drawn)	> 100	> 100	> 100 µM	> 100	> 100 µM	> 100	> 100 µM	> 100	> 100	> 100 µM	> 100				
O=S(=O)(O)c1ccc(N=Nc2c(O)ccc3ccccc23)cc1	> 100	> 100	> 100 µM	> 100	> 100 µM	> 100	> 100 µM	> 100	> 100	> 100 µM	> 100				
COC(=O)C(Cc1c[nH]c2ccccc12)NC(=O)C(Cc1c[nH]c2ccccc12)NC(=O)C(Cc1c[nH]c2ccccc12)NC(=O)C(Cc1c[nH]c2ccccc12)NC(=O)C(Cc1c[nH]c2ccccc12)NC(=O)OC(C)(C)C (stereo not drawn) (Boc-WWWWW-OMe; configuration not given here)	> 100	> 100	> 100 µM	> 100	> 100 µM	> 100	> 100 µM	> 100	> 100	> 100 µM					
CNc1nc2c(C)ccc3nc(N(C)C)nc-3c2n1C	> 10	> 10	> 10 µM	> 10	> 10 µM		> 10 µM	> 10	> 10	> 10 µM	> 10				
[N-]=[N+]=NC1(c2ccccc2)C(=O)c2cccc3c4ccccc4n(c23)C1=O (stereo not drawn)	> 100	> 100	> 100 µM	> 100		> 100	> 100 µM	> 100	> 100	> 100 µM	> 100				
CCOC(=O)CCN1C(=O)c2ccc(NC(=O)C(=O)O)cc2S1(=O)=O		> 100	> 100 µM	> 100	> 100 µM	> 100	> 100 µM	> 100	> 100	> 100 µM	> 100				
